Like-named read-outs stand apart in the source and are kept apart here. No end group written: not given here.
Key:
[1] = system: P. aeruginosa TISTR 357; assay: Stability against pH, residual antibacterial activity; type: physicochemical, Pseudomonas aeruginosa; settings: pH 14.0, 12 h, neutralized before assay; AMP 16 µg/mL; agar well diffusion read-out, % of non-treated AMP; mean ± SD, n = 3
Description: (§1) The AMP was dissolved in sterile purified water and adjusted a final concentration to 16 µg/mL. The sensitivity of the AMP to temperatures of 37, 40, 50, 60, 80, and 100 °C, as well as autoclaving at 121 °C for 15 and 30 min was evaluated. The sensitivity of the AMP to proteolytic enzymes with different digesting characteristics was studied by incubating with a concentration of 1 mg/mL of proteinase K, trypsin, and α-chymotrypsin (Sigma-Aldrich, Warren, MI, USA). The compatibility of the AMP with surfactants was evaluated by exposing the AMP to 1% SDS or 1% Triton X-100 (AppliChem GmbH, Darmstadt, Germany). The degradation of the AMP under various pH conditions, including physiological and extended alkaline conditions, was evaluated by adjusting the pH of the solution to 1.2, 4.5, 6.8, 7.4, 8.0, 10.0, 12.0, and 14.0. After incubation, the pH of the AMP solution was neutralized to the original pH before being assessed for antibacterial activity. The antibacterial assay against P. aeruginosa TISTR 357 was conducted using the agar well diffusion assay in triplicate. The stability profiles are presented as the percentage of the residual activity compared with the non-treatment conditions (mean ± SD), and statistical significance was determined by the Student’s t-test at a p-value < 0.05.

[2] = system: P. aeruginosa TISTR 357; assay: Stability against temperatures, residual antibacterial activity; type: physicochemical, Pseudomonas aeruginosa; settings: AMP 16 µg/mL, agar well diffusion read-out, % of non-treated AMP, mean ± SD, n = 3
Description: as §1

[3] = system: K. pneumoniae TISTR 1383; type: cell-based, Klebsiella pneumoniae; settings: TISTR 1383, 24 h
Description: The MIC and MBC of the purified AMP were determined using the broth microdilution method following the guidance provided by the Clinical and Laboratory Standards Institute (CLSI). P. aeruginosa TISTR 357 and K. pneumoniae TISTR 1383 were cultured on MH agar and incubated at 37 °C for 18 h. A single colony of the tested bacteria was suspended in 0.85% NaCl until the suspension turbidity reached an OD of 0.1 at 625 nm. The cells were then diluted to 5 × 10^6 CFU/mL using cation-adjusted Mueller Hinton broth (CAMHB). The diluted cell suspension of 10 µL was transferred into each well of a 96-well plate with a final volume of 100 µL per well. The AMP was added to achieve final concentrations ranging from 0.125 to 64 µg/mL. Colistin was used as the positive control, while antibiotic-free samples were used as negative controls. The 96-well plate was incubated at 37 °C for 24 h. Each strain was tested in triplicate. […] Subsequently, 100 µL of each dilution was spread on MH agar and then incubated at 37 °C for 24 h. The MBC was identified as the lowest concentration at which no bacterial colony growth was observed on the agar plate.

[4] = molecular target: Proteinase K (Parengyodontium album, UniProt P06873); settings: Proteinase K 1 mg/mL, AMP 16 µg/mL, agar well diffusion read-out, % of non-treated AMP, mean ± SD, n = 3
Sequence of Proteinase K (P06873 106-384): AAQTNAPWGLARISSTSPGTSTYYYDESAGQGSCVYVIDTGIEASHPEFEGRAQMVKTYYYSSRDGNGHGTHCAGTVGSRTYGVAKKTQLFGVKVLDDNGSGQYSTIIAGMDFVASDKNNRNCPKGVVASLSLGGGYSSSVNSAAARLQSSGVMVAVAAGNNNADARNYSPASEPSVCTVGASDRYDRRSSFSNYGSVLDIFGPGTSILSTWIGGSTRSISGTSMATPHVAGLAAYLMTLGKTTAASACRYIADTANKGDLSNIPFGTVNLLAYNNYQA
Description: as §1

[5] = system: K. pneumoniae TISTR 1383; assay: Time-kill assay; type: cell-based, Klebsiella pneumoniae; settings: for reduction rate of viable cells: 5 × 10^5 CFU/mL, CAMHB, 37 °C
Description: P. aeruginosa TISTR 357 and K. pneumoniae TISTR 1383 were separately adjusted to an initial treatment cell density of 5 × 10^5 CFU/mL with CAMHB. The experiment preparation followed the microdilution assay procedures. […] The reactions were carried out at 37 °C, followed by spreading the entire volume from each well in each treatment condition on MH agar at specific time intervals (0–24 h). The plates were placed in a 37 °C incubator for 24 h before counting the colonies. The trends in bacterial reduction were graphically depicted using a logarithmic scale of viable cells. The bacterial cell reduction was determined within 24 h. Each experiment was performed in triplicate on the 96-well plates.

[6] = molecular target: α-chymotrypsin (Bos taurus, UniProt P00766); settings: α-chymotrypsin 1 mg/mL, AMP 16 µg/mL, agar well diffusion read-out, % of non-treated AMP, mean ± SD, n = 3
Description: as §1

[7] = system: K. pneumoniae TISTR 1383; assay: Sytox Green uptake assay (cell membrane permeability); type: cell-based, Klebsiella pneumoniae; settings: 2× MIC; Sytox Green 10 µM, over 24 h; mean ± SD, triplicate
Description: The cell suspension was diluted with the diluent until the OD at 625 nm was equal to 0.1 (1.5 × 10^8 CFU/mL). An aliquot of the diluted cells (100 μL) was introduced into each well and incubated with 10 μM of Sytox Green (Thermo Fisher Scientific Inc., Waltham, MA, USA) in the dark for 15 min. […] After the introduction of the AMP, the cell membrane permeability of treated bacteria was evaluated by monitoring the fluorescence intensity resulting from the penetration of Sytox Green across the compromised cell membrane and subsequently binding to nucleic acid. […] Significant differences in fluorescence intensity of overall time points were analyzed by one-way ANOVA (p-value < 0.05) and post hoc Tukey’s test for multiple comparisons between treated and non-treated conditions [52].

How did the “% Residual Activity of NNS5-6 AMP against P. aeruginosa TISTR 357” value [1] turn out when VKGDGGPGTVYTM [NNS5-6 AMP] was run?
Its value is 79.05 ± 1.75 %.

And the “% Residual Activity of NNS5-6 AMP against P. aeruginosa TISTR 357” value ([2]; 37 °C, 1 h)?
Its value is 99.39 ± 1.98%.

And the “% Residual Activity of NNS5-6 AMP against P. aeruginosa TISTR 357” value ([2]; 37 °C, 6 h)?
The value was 99.39 ± 0.61%.

What about the “% Residual Activity of NNS5-6 AMP against P. aeruginosa TISTR 357” value ([2]; 37 °C, 12 h) of the same sequence?
Its value is 99.69 ± 0.95%.

What about the “% Residual Activity of NNS5-6 AMP against P. aeruginosa TISTR 357” value ([2]; 40 °C, 1 h) of the same sequence?
Its value is 99.80 ± 0.94%.

And the “% Residual Activity of NNS5-6 AMP against P. aeruginosa TISTR 357” value ([2]; 40 °C, 6 h)?
The value was 99.19 ± 0.93%.

And the “% Residual Activity of NNS5-6 AMP against P. aeruginosa TISTR 357” value ([2]; 40 °C, 12 h)?
Its value is 99.07 ± 0.72%.

And the “% Residual Activity of NNS5-6 AMP against P. aeruginosa TISTR 357” value ([2]; 50 °C, 1 h)?
The value was 65.16 ± 3.07 %.

And the “% Residual Activity of NNS5-6 AMP against P. aeruginosa TISTR 357” value ([2]; 50 °C, 6 h)?
Its value is 0.00 ± 0.00 %.

What about the “% Residual Activity of NNS5-6 AMP against P. aeruginosa TISTR 357” value ([2]; 50 °C, 12 h) of the same sequence?
The value was 0.00 ± 0.00 %.

And the “% Residual Activity of NNS5-6 AMP against P. aeruginosa TISTR 357” value ([2]; 60 °C, 1 h)?
The value was 0.00 ± 0.00 %.

What about the “% Residual Activity of NNS5-6 AMP against P. aeruginosa TISTR 357” value ([2]; 60 °C, 6 h) of the same sequence?
The value was 0.00 ± 0.00 %.

And the “% Residual Activity of NNS5-6 AMP against P. aeruginosa TISTR 357” value ([2]; 60 °C, 12 h)?
Its value is 0.00 ± 0.00 %.

And the “% Residual Activity of NNS5-6 AMP against P. aeruginosa TISTR 357” value ([2]; 80 °C, 1 h)?
Its value is 0.00 ± 0.00 %.

And the “% Residual Activity of NNS5-6 AMP against P. aeruginosa TISTR 357” value ([2]; 80 °C, 6 h)?
The value was 0.00 ± 0.00 %.

What about the “% Residual Activity of NNS5-6 AMP against P. aeruginosa TISTR 357” value ([2]; 80 °C, 12 h) of the same sequence?
Its value is 0.00 ± 0.00 %.

And the “% Residual Activity of NNS5-6 AMP against P. aeruginosa TISTR 357” value ([2]; 100 °C, 1 h)?
Its value is 0.00 ± 0.00 %.

What about the “% Residual Activity of NNS5-6 AMP against P. aeruginosa TISTR 357” value ([2]; 100 °C, 6 h) of the same sequence?
Its value is 0.00 ± 0.00 %.

And the “% Residual Activity of NNS5-6 AMP against P. aeruginosa TISTR 357” value ([2]; 100 °C, 12 h)?
The value was 0.00 ± 0.00 %.

And the “% Residual Activity of NNS5-6 AMP against P. aeruginosa TISTR 357” value ([2]; autoclave 121 °C, 15 psi, 15 min (same value in 1 h, 6 h and 12 h))?
Its value is 0.00 ± 0.00 %.

And the “% Residual Activity of NNS5-6 AMP against P. aeruginosa TISTR 357” value ([2]; autoclave 121 °C, 15 psi, 30 min (same value in 1 h, 6 h and 12 h))?
The value was 0.00 ± 0.00 %.

What about the MBC [3] of the same sequence?
The MBC was 8 µg/mL.

And the MIC [3]?
Its MIC is 4 µg/mL.

What about the “% Residual Activity of NNS5-6 AMP against P. aeruginosa TISTR 357” value ([4]; 1 h) of the same sequence?
Its value is 96.08 ± 3.41 %.

And the “% Residual Activity of NNS5-6 AMP against P. aeruginosa TISTR 357” value ([4]; 6 h)?
The value was 86.58 ± 1.22 %.

What about the “% Residual Activity of NNS5-6 AMP against P. aeruginosa TISTR 357” value ([4]; 12 h) of the same sequence?
Its value is 83.62 ± 1.34 %.

What about the “reduction of viable cells” value ([5]; 1× MIC, until 24 h of treatment, growth only suppressed) of the same sequence?
Its value is “up to 2 log (CFU/mL)”.

And the “reduction rate of viable cells” value ([5]; 1× MIC)?
Its value is 0.0579 log CFU/h.

What about the “treatment time to eradication of viable cells” value ([5]; 2× MIC) of the same sequence?
Its value is no more than 8 h.

What about the “reduction rate of viable cells” value ([5]; 2× MIC) of the same sequence?
Its value is 0.5715 log CFU/h.

And the “% Residual Activity of NNS5-6 AMP against P. aeruginosa TISTR 357” value ([6]; 1 h)?
The value was 99.38 ± 0.95%.

And the “% Residual Activity of NNS5-6 AMP against P. aeruginosa TISTR 357” value ([6]; 6 h)?
Its value is 99.42 ± 1.22%.

What about the “% Residual Activity of NNS5-6 AMP against P. aeruginosa TISTR 357” value ([6]; 12 h) of the same sequence?
Its value is 98.46 ± 0.88%.

What about the “fold increase in fluorescence intensity compared with non-treatment” value [7] of the same sequence?
The value was 3.21 ± 0.29 fold.

Source: paper PMC11428215, “Unveiling a New Antimicrobial Peptide with Efficacy against P. aeruginosa and K. pneumoniae from Mangrove-Derived Paenibacillus thiaminolyticus NNS5-6 and Genomic Analysis” (Antibiotics, 2024)
